Assay results as given in patent US12264156B2, “Compounds and pharmaceutical compositions thereof for the treatment of diseases” (GALAPAGOS NV, priority 2018, dated 2025).

Experiments:
SIK2 = molecular target: T1, SIK2 (Homo sapiens, UniProt Q9H0K1); assay: ADP-Glo kinase assay, SIK2; format: biochemical; conditions: ADP-Glo SIK kinase assay
T1 construct: purchased ThermoFisher Scientific PV4792
In short: (§1)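 Kinase reactions (enzyme-substrate mix plus ATP) ran 120 min at room temperature for each of SIK3 and SIK2. Signal came from ADP-Glo: unconsumed ATP removed (40 min), ADP reconverted and detected by luciferase/luciferin (30 min), with luminescence tracking kinase activity. 10 μM staurosporine and 1% DMSO (final) served as controls.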

SIK3 = molecular target: T2, SIK3 (Homo sapiens, UniProt Q9Y2K2); assay: ADP-Glo kinase assay, SIK3; format: biochemical; conditions: ADP-Glo SIK kinase assay
T2 construct: purchased SignalChem S12-11G-100
T2 sequence (Q9Y2K2 whole entry): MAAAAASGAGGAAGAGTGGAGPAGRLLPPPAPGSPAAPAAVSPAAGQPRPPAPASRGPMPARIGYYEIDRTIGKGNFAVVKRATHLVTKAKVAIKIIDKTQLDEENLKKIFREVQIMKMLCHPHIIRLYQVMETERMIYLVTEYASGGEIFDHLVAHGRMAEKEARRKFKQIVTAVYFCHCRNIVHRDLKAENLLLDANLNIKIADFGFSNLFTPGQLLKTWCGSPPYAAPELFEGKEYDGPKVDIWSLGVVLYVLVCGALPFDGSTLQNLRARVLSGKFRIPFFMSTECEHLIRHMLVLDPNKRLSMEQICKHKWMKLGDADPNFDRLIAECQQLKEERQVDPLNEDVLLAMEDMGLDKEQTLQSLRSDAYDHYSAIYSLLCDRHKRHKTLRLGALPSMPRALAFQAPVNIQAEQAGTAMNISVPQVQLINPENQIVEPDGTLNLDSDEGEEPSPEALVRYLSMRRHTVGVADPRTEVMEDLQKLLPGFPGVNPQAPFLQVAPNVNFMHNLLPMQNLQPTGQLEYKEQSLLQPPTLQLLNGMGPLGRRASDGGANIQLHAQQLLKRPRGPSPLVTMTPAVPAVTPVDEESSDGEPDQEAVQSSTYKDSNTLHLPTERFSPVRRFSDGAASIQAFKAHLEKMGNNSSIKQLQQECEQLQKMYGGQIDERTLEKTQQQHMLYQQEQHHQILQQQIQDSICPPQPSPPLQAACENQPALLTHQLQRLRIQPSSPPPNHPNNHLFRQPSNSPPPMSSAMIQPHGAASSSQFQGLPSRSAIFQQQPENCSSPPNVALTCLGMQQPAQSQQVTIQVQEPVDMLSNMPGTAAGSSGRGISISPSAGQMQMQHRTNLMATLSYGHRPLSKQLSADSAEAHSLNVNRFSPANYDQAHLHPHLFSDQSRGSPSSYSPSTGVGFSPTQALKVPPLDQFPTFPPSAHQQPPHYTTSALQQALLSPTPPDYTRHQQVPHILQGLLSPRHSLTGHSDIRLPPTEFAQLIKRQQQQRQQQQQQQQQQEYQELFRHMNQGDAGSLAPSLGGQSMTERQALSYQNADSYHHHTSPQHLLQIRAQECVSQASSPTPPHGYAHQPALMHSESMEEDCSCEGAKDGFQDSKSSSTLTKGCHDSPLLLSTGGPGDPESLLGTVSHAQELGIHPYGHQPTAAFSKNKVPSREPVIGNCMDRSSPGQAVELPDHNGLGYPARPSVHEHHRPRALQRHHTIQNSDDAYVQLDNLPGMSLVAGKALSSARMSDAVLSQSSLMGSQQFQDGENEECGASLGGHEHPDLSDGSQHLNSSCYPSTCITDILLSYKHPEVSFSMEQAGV
In short: as §1

[1] = system: LPS-induced TNFα in monocyte-derived macrophages (MdM); assay: MdM assay: LPS-triggered TNFα (ELISA); format: cell-based, human; conditions: Homo sapiens, Macrophage, 20 h, monocyte-derived macrophages, LPS 200 ng/mL, supernatant after 20 h; read-out: TNFα EC50
In short: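 Human monocyte-derived macrophages from CD14+ bead-selected buffy-coat PBMCs, used on day 10, pre-treated with compound for 1 h at 37 °C (0.2% DMSO), then stimulated with 200 ng/mL LPS. Supernatant taken after 20 h for TNFα sandwich ELISA (IL-10 at 2 h).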

T1 sequence (Q9H0K1 whole entry): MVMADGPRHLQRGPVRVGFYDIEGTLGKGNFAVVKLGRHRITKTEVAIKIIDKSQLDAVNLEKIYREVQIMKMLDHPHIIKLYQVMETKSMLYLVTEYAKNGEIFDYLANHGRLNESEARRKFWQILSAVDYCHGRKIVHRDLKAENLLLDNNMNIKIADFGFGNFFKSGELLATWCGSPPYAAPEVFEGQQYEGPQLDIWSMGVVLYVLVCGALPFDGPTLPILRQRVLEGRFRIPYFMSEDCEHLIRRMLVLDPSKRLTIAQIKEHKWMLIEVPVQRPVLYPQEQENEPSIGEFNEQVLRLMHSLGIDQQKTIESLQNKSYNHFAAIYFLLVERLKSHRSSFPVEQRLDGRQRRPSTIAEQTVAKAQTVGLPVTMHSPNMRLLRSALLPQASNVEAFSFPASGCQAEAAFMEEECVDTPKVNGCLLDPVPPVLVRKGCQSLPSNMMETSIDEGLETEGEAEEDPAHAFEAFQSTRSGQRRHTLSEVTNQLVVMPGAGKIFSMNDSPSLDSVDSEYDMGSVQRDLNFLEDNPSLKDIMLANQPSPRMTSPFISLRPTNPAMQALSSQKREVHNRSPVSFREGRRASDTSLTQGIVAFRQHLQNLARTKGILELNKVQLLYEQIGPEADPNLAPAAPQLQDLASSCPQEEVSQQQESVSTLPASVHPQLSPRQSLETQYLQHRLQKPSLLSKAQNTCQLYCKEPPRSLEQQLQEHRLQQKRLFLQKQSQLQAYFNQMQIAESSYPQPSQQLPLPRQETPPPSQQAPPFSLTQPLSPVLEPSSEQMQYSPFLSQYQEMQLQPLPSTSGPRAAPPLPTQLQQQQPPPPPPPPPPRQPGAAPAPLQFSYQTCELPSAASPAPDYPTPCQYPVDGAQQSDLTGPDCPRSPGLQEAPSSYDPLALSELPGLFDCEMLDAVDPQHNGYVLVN

Compound	IC50 (SIK2) [nM]	IC50 (SIK3) [nM]	EC50 [1] [nM]
CNCCOc1ccn2c(-c3cc(OC)c(C(=O)NC4CC4)c(OC(F)F)c3)cnc2c1 [compound 117, N-cyclopropyl-2-(difluoromethoxy)-6-methoxy-4-[7-[2-(methylamino)ethoxy]imidazo[1,2-a]pyridin-3-yl]benzamide]	0.01 to 10	0.01 to 10	100 to 1000
COc1cc(-c2cnc3cc(OCCN)ccn23)cc(OC(F)F)c1C(=O)NC1CC1 [compound 118, 4-[7-(2-aminoethoxy)imidazo[1,2-a]pyridin-3-yl]-N-cyclopropyl-2-(difluoromethoxy)-6-methoxy-benzamide]	0.01 to 10	0.01 to 10	100 to 1000
CCN(CC)CCOc1ccn2c(-c3cc4c(c(OC)c3)C(=O)N(CC(F)(F)F)CC4)cnc2c1 [compound 128, 6-[7-[2-(diethylamino)ethoxy]imidazo[1,2-a]pyridin-3-yl]-8-methoxy-2-(2,2,2-trifluoroethyl)-3,4-dihydroisoquinolin-1-one]	0.01 to 10	0.01 to 10	100 to 1000
CN(C)CCOc1ccn2c(-c3cc(OC(F)F)c(C(=O)NC4CC4)c(OC(F)F)c3)cnc2c1 [compound 156, N-cyclopropyl-2,6-bis(difluoromethoxy)-4-[7-[2-(dimethylamino)ethoxy]imidazo[1,2-a]pyridin-3-yl]benzamide]	0.01 to 10	0.01 to 10	100 to 1000
COc1cc(-c2cnc3cc(OCCN(C)C)ccn23)cc(OC(F)F)c1C(=O)NCC(F)(F)F [compound 166, 2-(difluoromethoxy)-4-[7-[2-(dimethylamino)ethoxy]imidazo[1,2-a]pyridin-3-yl]-6-methoxy-N-(2,2,2-trifluoroethyl)benzamide]	0.01 to 10	0.01 to 10	100 to 1000
CNc1cc(-c2cnc3cc(OCCN(C)C)ccn23)cc2c1C(=O)N(CC(F)(F)F)CC2 [compound 167, 6-[7-[2-(dimethylamino)ethoxy]imidazo[1,2-a]pyridin-3-yl]-8-(methylamino)-2-(2,2,2-trifluoroethyl)-3,4-dihydroisoquinolin-1-one]	0.01 to 10	10 to 100	> 5000

Further lines, results first:

IC50 (SIK2) [nM]	IC50 (SIK3) [nM]	EC50 [1] [nM]	Compound
0.01 to 10	0.01 to 10	100 to 1000	COc1cc(-c2cnc3cc(OCCN4CCCC4)ccn23)cc2c1C(=O)N(CC(F)(F)F)CC2 [compound 123, 8-methoxy-6-[7-(2-pyrrolidin-1-ylethoxy)imidazo[1,2-a]pyridin-3-yl]-2-(2,2,2-trifluoroethyl)-3,4-dihydroisoquinolin-1-one]
0.01 to 10	0.01 to 10	100 to 1000	COc1cc(-c2cnc3cc(OC[C@H]4CCCN4C)ccn23)cc2c1C(=O)N(CC(F)(F)F)CC2 [compound 124, 8-methoxy-6-[7-[[(2R)-1-methylpyrrolidin-2-yl]methoxy]imidazo[1,2-a]pyridin-3-yl]-2-(2,2,2-trifluoroethyl)-3,4-dihydroisoquinolin-1-one]
0.01 to 10	0.01 to 10	100 to 1000	COc1cc(-c2cnc3cc(OCC4CCO4)ccn23)cc2c1C(=O)N(CC(F)(F)F)CC2 (stereo not drawn) [compound 125, 8-methoxy-6-[7-(oxetan-2-ylmethoxy)imidazo[1,2-a]pyridin-3-yl]-2-(2,2,2-trifluoroethyl)-3,4-dihydroisoquinolin-1-one]
0.01 to 10	0.01 to 10	100 to 1000	COc1cc(-c2cnc3cc(OCc4cnco4)ccn23)cc2c1C(=O)N(CC(F)(F)F)CC2 [compound 126, 8-methoxy-6-[7-(oxazol-5-ylmethoxy)imidazo[1,2-a]pyridin-3-yl]-2-(2,2,2-trifluoroethyl)-3,4-dihydroisoquinolin-1-one]
0.01 to 10	0.01 to 10	100 to 1000	COc1cc(-c2cnc3cc(OCC4CN(C)CCO4)ccn23)cc2c1C(=O)N(CC(F)(F)F)CC2 (stereo not drawn) [compound 127, 8-methoxy-6-[7-[(4-methylmorpholin-2-yl)methoxy]imidazo[1,2-a]pyridin-3-yl]-2-(2,2,2-trifluoroethyl)-3,4-dihydroisoquinolin-1-one]
